This note sets out measurements from patent US11524966B1 (Valo Early Discovery, Inc., priority 2017, dated 2022).

SMILES strings stand for the structures.

This test has as its target T1, USP25 (USP25-His6, Boston Biochem E-546) (Homo sapiens, UniProt Q9UHP3).
T1 construct: His6; purchased Boston Biochem E-546
T1 sequence (Q9UHP3 1-1055): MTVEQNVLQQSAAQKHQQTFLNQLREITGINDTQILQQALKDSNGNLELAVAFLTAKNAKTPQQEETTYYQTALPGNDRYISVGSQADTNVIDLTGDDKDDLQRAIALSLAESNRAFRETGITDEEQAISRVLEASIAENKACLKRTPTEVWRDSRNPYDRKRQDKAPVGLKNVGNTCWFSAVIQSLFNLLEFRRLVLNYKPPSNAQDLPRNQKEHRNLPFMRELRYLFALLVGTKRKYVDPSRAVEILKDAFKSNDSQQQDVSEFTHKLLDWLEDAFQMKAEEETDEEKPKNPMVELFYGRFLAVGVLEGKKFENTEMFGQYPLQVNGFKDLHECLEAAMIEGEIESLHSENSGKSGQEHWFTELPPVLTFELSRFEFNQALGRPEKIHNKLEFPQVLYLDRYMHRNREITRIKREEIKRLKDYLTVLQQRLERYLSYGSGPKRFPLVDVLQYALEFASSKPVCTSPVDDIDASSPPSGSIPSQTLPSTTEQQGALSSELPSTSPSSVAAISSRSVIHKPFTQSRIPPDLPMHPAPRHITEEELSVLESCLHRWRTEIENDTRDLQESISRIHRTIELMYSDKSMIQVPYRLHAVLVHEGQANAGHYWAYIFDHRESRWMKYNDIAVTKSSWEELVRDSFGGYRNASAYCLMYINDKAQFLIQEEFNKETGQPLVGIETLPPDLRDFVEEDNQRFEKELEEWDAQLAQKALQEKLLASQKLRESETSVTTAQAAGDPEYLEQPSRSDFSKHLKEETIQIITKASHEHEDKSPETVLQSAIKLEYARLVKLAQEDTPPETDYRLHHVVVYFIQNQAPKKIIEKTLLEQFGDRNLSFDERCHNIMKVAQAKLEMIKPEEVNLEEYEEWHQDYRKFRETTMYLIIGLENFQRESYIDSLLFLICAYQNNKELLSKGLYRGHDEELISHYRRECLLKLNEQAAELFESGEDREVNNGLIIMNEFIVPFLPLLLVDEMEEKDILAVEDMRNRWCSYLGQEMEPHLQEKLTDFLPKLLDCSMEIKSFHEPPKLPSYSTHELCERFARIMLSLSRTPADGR
Nature of the test: Ubiquitin-Rhodamine 110 Assay for USP25 Activity, Example A-2. Format: biochemical. The settings on record: Ubiquitin-Rhodamine 110 assay, Example A-2; read-out: USP25 A-2 IC50 range. An outline of the steps:
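Inhibition is quantified as IC50 by 4-parameter fit of fluorescence (485/535 nm) from Ub-Rh110 hydrolysis. Enzyme USP25-His6 at 75 pM with 30 min compound preincubation, then 25 nM substrate for 45 min at room temperature in pH 8.0 Tris buffer containing BME.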
Consider `Cc1ccc2c(N)c(C(=O)N[C@H]3COc4cc(C5(C#N)CCS(=O)(=O)CC5)ccc4C3)sc2n1` [Example 34, 3-amino-N-[(3R)-7-(4-cyano-1,1-dioxo-1λ6-thian-4-yl)-3,4-dihydro-2H-1-benzopyran-3-yl]-6-methylthieno[2,3-b]pyridine-2-carboxamide], for which the concentration for half-maximal inhibition (IC50) is 1 to 50 nM.
With `Cc1ccc2c(N)c(C(=O)N[C@H]3COc4cc([C@H]5CCNC[C@@H]5F)ccc4C3)sc2n1` [Example 80, 3-amino-N-((R)-7-((3R,4R)-3-fluoropiperidin-4-yl)chroman-3-yl)-6-methylthieno[2,3-b]pyridine-2-carboxamide], the IC50 lay in the range of 50 to 200 nM.
Turning to `Cc1nc2sc(C(=O)N[C@H]3COc4c(F)c(N5CCNCC5)cc(F)c4C3)c(N)c2s1` [Example 56, (R)-6-amino-N-(5,8-difluoro-7-(piperazin-1-yl)chroman-3-yl)-2-methylthieno[2,3-d]thiazole-5-carboxamide], the 50% inhibitory concentration (IC50) fell in the range of 200 to 2000 nM.
On to `Cc1cnc2c(N)c(C(=O)N[C@H]3COc4cc(N5CCNCC5)ncc4C3)sc2n1` [Example 71, (R)-7-amino-3-methyl-N-(7-(piperazin-1-yl)-3,4-dihydro-2H-pyrano[3,2-c]pyridin-3-yl)thieno[2,3-b]pyrazine-6-carboxamide], for which the IC50 fell in the range of 200 to 2000 nM.
Take `Cc1ccc2c(N)c(C(=O)N[C@H]3COc4cc(N5C[C@H]6CC[C@@H]5CN6)ncc4C3)sc2n1` [Example 76, N-((R)-7-((1 R,4R)-2,5-diazabicyclo[2.2.2]octan-2-yl)-3,4-dihydro-2H-pyrano[3,2-c]pyridin-3-yl)-3-amino-6-methylthieno[2,3-b]pyridine-2-carboxamide]: the IC50 fell in the range of 50 to 200 nM.
`CO[C@@H]1CN(c2cc3c(cc2F)C[C@@H](NC(=O)c2sc4nc(C)ccc4c2N)CO3)C[C@H]1N` [Example 93, 3-amino-N-[(3R)-7-[(3R,4R)-3-amino-4-methoxypyrrolidin-1-yl]-6-fluoro-3,4-dihydro-2H-1-benzopyran-3-yl]-6-methylthieno[2,3-b]pyridine-2-carboxamide]: the IC50 is 200 to 2000 nM.
As to `Cc1cnc2c(N)c(C(=O)N[C@H]3CCc4nc(N5CC6CC(C5)N6)ccc4C3)sc2n1` [Example 23-11, 7-amino-N-[(6S)-2-{3,6-diazabicyclo[3.1.1]heptan-3-yl}-5,6,7,8-tetrahydroquinolin-6-yl]-3-methylthieno[2,3-b]pyrazine-6-carboxamide], the IC50 is 200 to 2000 nM.
Consider `Cc1ccc2c(N)c(C(=O)N[C@H]3CCc4nc(N5C[C@@H](N)[C@H](C(F)F)C5)ccc4C3)sc2n1` [Example 25, 3-Amino-N-[(6S)-2-[(3S,4R)-3-amino-4-(difluoromethyl)pyrrolidin-1-yl]-5,6,7,8-tetrahydroquinolin-6-yl]-6-methylthieno[2,3-b]pyridine-2-carboxamide], for which the IC50 was 200 to 2000 nM.
Turning to `Cc1nc2sc(C(=O)N[C@H]3COc4cc(N5CC6CCC(C5)N6)c(F)cc4C3)c(N)c2s1` [Example 47, N-((3R)-7-(3,8-diazabicyclo[3.2.1]octan-3-yl)-6-fluorochroman-3-yl)-6-amino-2-methylthieno[2,3-d]thiazole-5-carboxamide], the IC50 is > 2000 nM.
Take `Cc1ccc2c(N)c(C(=O)N[C@@H]3COc4cc(N5C[C@H]6CNC[C@@H]6C5)ccc4C3)sc2n1` [Example 44, 3-amino-N-((S)-7-((3aR,6aR)-hexahydropyrrolo[3,4-c]pyrrol-2(1H)-yl)chroman-3-yl)-6-methylthieno[2,3-b]pyridine-2-carboxamide]: the IC50 is > 2000 nM.
Regarding `Cc1cc(C)c2c(N)c(C(=O)N[C@H]3CCc4nc(N5CCNCC5)ccc4C3)sc2n1` [Example 23-14, 3-amino-4,6-dimethyl-N-[(6S)-2-(piperazin-1-yl)-5,6,7,8-tetrahydroquinolin-6-yl]thieno[2,3-b]pyridine-2-carboxamide], the half-maximal inhibitory concentration (IC50) fell in the range of 200 to 2000 nM.
